These results are taken from patent publication US12404242B2, “Compositions and methods for making and using small molecules in the treatment of cancer” (Reglagene, Inc., priority 2021, dated 2025).

One data set concerns LNCaP cells. Kind of data set: Cell viability (AlamarBlue), LNCaP prostate cancer cells. The data set is classed as cell-based, human. The note with it: 72 hours of treatment. The method, then: (§1) In another exemplary method, half maximal effective concentration (EC50) was determined for some compounds and their isomers as disclosed herein in a variety of human cancer cell lines. In brief, cells from two prostate cancer cell lines (LNCaP, 22RV1), one glioblastoma cell line (U87), one breast cancer cell line (MCF7), a glioma cell line (LN18), a normal prostate cell line (RWPE1), and a glioblastoma cell line (T98G) were plated in a multi-well plate. After 24 hours, one of the compounds herein was added to the well at increasing concentrations. After 72 hours of treatment, cell viability was assessed using AlamrBlue® (Invitrogen) and fluorescence was read using the CLARIOstar Plus Multilabel Plate Reader (BMG Labtech). Samples were normalized to no treatment controls. EC50 values were determined using GraphPad Prism.
Background: The colour change of resazurin is a common sign of viable cells or microbes.

In the next data set the test system is 22RV1 cells. Kind of data set: Cell viability (AlamarBlue), 22RV1 prostate cancer cells. The data set is classed as cell-based, human. The arrangement: key to EC50 (μM) in 22RV1 cells: Inactive: less than 50% inhibition at the highest concentration tested at 50 μM. The note with it: 72 hours of treatment. The method, then: as §1
The next data set has as its system U87 cells. Nature of the data set: Cell viability (AlamarBlue), U87 glioblastoma cells. The following applies: 72 hours of treatment. The arrangement: key to EC50 (μM) in U87 cells: Inactive: less than 50% inhibition at the highest concentration tested at 50 μM. Type of data set: cell-based, human. As to the method: as §1
The subject of the next data set is RWPE1 cells. Kind of data set: Cell viability (AlamarBlue), RWPE1 normal prostate cells. The note with it: normal prostate cell line; for EC50 (μM) in RWPE1 cells: 72 hours of treatment. Type of data set: cell-based, human. Also on record: key to EC50 (μM) in RWPE1 cells: Inactive: less than 50% inhibition at the highest concentration tested at 50 μM. The method, then:
as §1

Data set [1] is described as follows: Kinetic solubility in aqueous PBS buffer (HPLC-MS). Type of data set: physicochemical. The following applies: kinetic from dmso stock, DMSO stock mixed with aqueous PBS buffer, filtered, read-out: Kinetic Solubility. As to the method:
In another exemplary method, central nervous system multiparameter optimization (CNS MPO) score and kinetic solubility of selected compounds was determined. CNS MPO score for compounds and their isomers disclosed herein were calculated using an algorithm that uses a weighted scoring function assessing 6 key physicochemical properties (clogP, clogD, MW, TPSA, HBD, and pKa) for blood-brain-barrier (BBB penetration). CNS MPO score ranged from 0 and 6.0 with scores≥4.0 used as a cut-off to select compounds that can have a high probability of accumulating in the CNS. Kinetic solubility of a compound is the maximum solubility of the fastest precipitating species of the compound. Kinetic solubility was determined by preparing a concentrated stock solution for compounds and their isomers disclosed herein in an organic solvent (DMSO), after which the solution was mixed with an aqueous PBS buffer and then filtered. Filtrate was tested to quantify the kinetic solubilty using HPLC-MS calibration curve. The CNS MPO Score and kinetic solubility of the compounds tested are provided in Table 7 where “ND” means not determined.

Converted amounts (≈) assume the structure as drawn.

As usually defined, the EC50 is the concentration that produces a half-maximal response. Regarding `COC1CCC(C(=O)NC(=O)Nc2ccc(Oc3ncc(Cl)cn3)c(F)c2)CC1` (single isomer, unassigned) [Compound 14A, N-((4-((5-chloropyrimidin-2-yl)oxy)-3-fluorophenyl)carbamoyl)-4-methoxycyclohexane-1-carboxamide], the EC50 was found to be 1.8 µM with LNCaP cells (Homo sapiens, LNCaP, 72 h); 1.1 µM in the data set with 22RV1 cells (Homo sapiens, 22Rv1, 72 h); 1.3 µM in the data set on U87 cells (Homo sapiens, U-87 MG, 72 h); 1.3 µM in the data set with RWPE1 cells (Homo sapiens, RWPE-1, 72 hours of treatment).

For `COC1CCC(C(=O)NC(=O)Nc2ccc(Oc3ncc(Cl)cn3)c(F)c2)CC1` (single isomer, unassigned) [Compound 14B, N-((4-((5-chloropyrimidin-2-yl)oxy)-3-fluorophenyl)carbamoyl)-4-methoxycyclohexane-1-carboxamide], in the data set on 22RV1 cells, the “EC50 (μM) in 22RV1 cells” value is recorded as “Inactive”. Moreover, the “EC50 (μM) in U87 cells” value in the data set with U87 cells is reported as “Inactive”. In addition, the “EC50 (μM) in RWPE1 cells” value with RWPE1 cells is listed as “Inactive”.

In the case of `COC1CC(C(=O)NC(=O)Nc2ccc(Oc3ccc(F)cn3)c(C)c2)C1` (single isomer, unassigned) [Compound 15B, N-((4-((5-fluoropyridin-2-yl)oxy)-3-methylphenyl)carbamoyl)-3-methoxycyclobutanecarboxamide], the figures for the EC50 in the data set with LNCaP cells, in the data set with 22RV1 cells and in the data set on U87 cells were 3.9 µM, 17.3 µM and 22 µM, respectively. For the same compound, in the data set with RWPE1 cells, the “EC50 (μM) in RWPE1 cells” value is “Inactive”.

For the compound `COC1CC(C(=O)NC(=O)Nc2ccc(Oc3ccc(C#N)cn3)c(C)c2)C1` (single isomer, unassigned) [Compound 16B, N-((4-((5-cyanopyridin-2-yl)oxy)-3-methylphenyl)carbamoyl)-3-methoxycyclobutane-1-carboxamide], the EC50 with LNCaP cells came to 5 µM; in the data set with 22RV1 cells it was 21.2 µM; in the data set on U87 cells it was 24 µM. Moreover, the “EC50 (μM) in RWPE1 cells” value with RWPE1 cells is “Inactive”.

Take `COC1CC(C(=O)NC(=O)Nc2ccc(Oc3ccc(Cl)cn3)c(C)c2)C1` (single isomer, unassigned) [Compound 19B, 1-{4-[(5-chloropyridin-2-yl)oxy]-3-methylphenyl}-3-(3-methoxycyclobutanecarbonyl) urea]: the EC50 worked out at 1.3 µM with LNCaP cells, 4.2 µM with 22RV1 cells and 13.7 µM with U87 cells. The “EC50 (μM) in RWPE1 cells” value with RWPE1 cells is reported as “Inactive”.

As a reminder, the kinetic solubility is the concentration staying in solution when a stock, usually in DMSO, is diluted into the medium. Take `COC1CCC(C(=O)NC(=O)Nc2ccc(Oc3cnc(N4CCOCC4)nc3)c(C)c2)CC1` (centres unmarked) [Compound 46, 4-methoxy-N-((3-methyl-4-((2-morpholinopyrimidin-5-yl)oxy)phenyl)carbamoyl)cyclohexane-1-carboxamide]: the EC50 in the data set on LNCaP cells (Homo sapiens, LNCaP, 72 h) was found to be 2.9 µM; in the data set with 22RV1 cells (Homo sapiens, 22Rv1, 72 h), 8 µM. Also, in the data set with U87 cells, the “EC50 (μM) in U87 cells” value was “Inactive”. The kinetic solubility in data set [1] amounted to 0.39 µM (≈ 0.183 µg/mL).

Regarding `COCCOC1CC(C(=O)NC(=O)Nc2ccc(Oc3ncc(Cl)cn3)c(C)c2)C1` (centres unmarked) [Compound 48, N-((4-((5-chloropyrimidin-2-yl)oxy)-3-methylphenyl)carbamoyl)-3-(2-methoxyethoxy)cyclobutane-1-carboxamide], the EC50 in the data set with LNCaP cells (Homo sapiens, LNCaP, 72 h) came out at 12.4 µM; in the data set on 22RV1 cells (Homo sapiens, 22Rv1, 72 h), 3.2 µM; in the data set on U87 cells (Homo sapiens, U-87 MG, 72 h) it was 6.4 µM. In data set [1], the kinetic solubility is 84.2 µM (≈ 36.6 µg/mL).

With `COCCOC1CC(C(=O)NC(=O)Nc2ccc(Oc3ccc(Cl)cn3)c(C)c2)C1` (centres unmarked) [Compound 49, N-((4-((5-chloropyridin-2-yl)oxy)-3-methylphenyl)carbamoyl)-3-(2-methoxyethoxy)cyclobutane-1-carboxamide], the EC50 in the data set with LNCaP cells (Homo sapiens, LNCaP, 72 h) came out at 11.8 µM; in the data set with 22RV1 cells (Homo sapiens, 22Rv1, 72 h) it was 1.3 µM; with U87 cells (Homo sapiens, U-87 MG, 72 h) it was 3.7 µM. Further, in data set [1], the kinetic solubility was 37.5 µM (≈ 16.3 µg/mL).

Consider `COC1CC(C(=O)NC(=O)Nc2ccc(Oc3ncns3)c(C)c2)C1` (centres unmarked) [Compound 57, N-((4-((1,2,4-thiadiazol-5-yl)oxy)-3-methylphenyl)carbamoyl)-3-methoxycyclobutane-1-carboxamide], for which the EC50 in the data set on LNCaP cells (Homo sapiens, LNCaP, 72 h) was determined as 3.1 µM; with 22RV1 cells (Homo sapiens, 22Rv1, 72 h), 6.3 µM; with U87 cells (Homo sapiens, U-87 MG, 72 h), 13.5 µM. The solubility (kinetic) in data set [1] stood at 75 µM (≈ 27.2 µg/mL).
